Experimental data published in ChEMBL document CHEMBL1201862, “PubChem BioAssay data set” (2004).
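Five concentrations, 48 hours, 96-well plates. At the GI50, growth is halved.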 Calls of active or inactive are those of the source. Rule as the data show it: active = GI50 up to about 1.1 µM and inactive = higher.

Key:
Test in all cases: NCI-60 cell line screen, 48 h
786-0 = system: 786-0
A498 = system: A498
DMS-114 = system: DMS-114
HCC 2998 = system: HCC 2998
HOP-62 = system: HOP-62
HOP-92 = system: HOP-92
LXFL 529 = system: LXFL 529
NCI-H226 = system: NCI-H226
OVCAR-5 = system: OVCAR-5
RPMI-8226 = system: RPMI-8226
SK-MEL-28 = system: SK-MEL-28
SK-MEL-2 = system: SK-MEL-2
SK-MEL-5 = system: SK-MEL-5
HCT-116 = system: HCT-116
DU-145 = system: DU-145
Hs-578T = system: Hs-578T
NCI/ADR-RES = system: NCI/ADR-RES
PC-3 = system: PC-3
RXF 393 = system: RXF 393
SR = system: SR

CC(=O)C1=C(O)C2C3c4c[nH]c5cccc(c45)CC3C(C)(C)N2C1=O (stereo not drawn)
GI50 (786-0): 19.3 µM (inactive)
GI50 (A498): 20.1 µM (inactive)
GI50 (DMS-114): 20.4 µM (inactive)
GI50 (HCC 2998): 23.1 µM (inactive)
GI50 (HOP-62): 6.46 µM (inactive)
GI50 (HOP-92): > 100 µM (inactive)
GI50 (LXFL 529): 78.3 µM (inactive)
GI50 (NCI-H226): 17.3 µM (inactive)
GI50 (OVCAR-5): 16.6 µM (inactive)
GI50 (RPMI-8226): 4.85 µM (inactive)
GI50 (SK-MEL-28): 21.6 µM (inactive)
GI50 (SK-MEL-2): 13.1 µM (inactive)
GI50 (SK-MEL-5): 11.7 µM (inactive)

Cc1cccc(C)c1N1C(=O)C(=O)C(c2nc3ccccc3s2)/C(=N\N)C1=O (stereo not drawn)
GI50 (786-0): > 100 µM (inactive)
GI50 (A498): > 100 µM (inactive)
GI50 (DMS-114): 60.8 µM (inactive)
GI50 (HCC 2998): > 100 µM (inactive)
GI50 (HCT-116): > 100 µM (inactive)
GI50 (HOP-62): > 100 µM (inactive)
GI50 (HOP-92): > 100 µM (inactive)
GI50 (LXFL 529): 40.8 µM (inactive)
GI50 (NCI-H226): > 100 µM (inactive)
GI50 (OVCAR-5): > 100 µM (inactive)
GI50 (RPMI-8226): 39.9 µM (inactive)
GI50 (SK-MEL-28): > 100 µM (inactive)
GI50 (SK-MEL-2): > 100 µM (inactive)
GI50 (SK-MEL-5): > 100 µM (inactive)

CC(C)(C)C1=CC(=C2C(=O)C(=O)c3ccccc3C2=O)C=C(C(C)(C)C)C1=O
GI50 (786-0): 34.5 µM (inactive)
GI50 (A498): < 0.01 µM (active)
GI50 (DMS-114): 31.3 µM (inactive)
GI50 (HCC 2998): > 100 µM (inactive)
GI50 (HCT-116): 19.2 µM (inactive)
GI50 (HOP-62): > 100 µM (inactive)
GI50 (HOP-92): 28.8 µM (inactive)
GI50 (LXFL 529): 26.9 µM (inactive)
GI50 (OVCAR-5): > 100 µM (inactive)
GI50 (RPMI-8226): 23.8 µM (inactive)
GI50 (SK-MEL-28): > 100 µM (inactive)
GI50 (SK-MEL-2): > 100 µM (inactive)
GI50 (SK-MEL-5): 48.5 µM (inactive)

CO[C@H]1O[C@@H]2CO[C@@H](c3ccccc3)O[C@H]2[C@@H]2CC=CCC[C@]12O
GI50 (786-0): 61.2 µM (inactive)
GI50 (A498): 32.1 µM (inactive)
GI50 (DU-145): > 100 µM (inactive)
GI50 (HCC 2998): 18.5 µM (inactive)
GI50 (HCT-116): 30.1 µM (inactive)
GI50 (HOP-62): > 100 µM (inactive)
GI50 (HOP-92): 49.8 µM (inactive)
GI50 (Hs-578T): 0.052 µM (active)
GI50 (NCI-H226): > 100 µM (inactive)
GI50 (NCI/ADR-RES): 44.4 µM (inactive)
GI50 (OVCAR-5): > 100 µM (inactive)
GI50 (PC-3): 40.9 µM (inactive)
GI50 (RPMI-8226): 23.7 µM (inactive)
GI50 (RXF 393): 62.1 µM (inactive)
GI50 (SK-MEL-28): > 100 µM (inactive)
GI50 (SK-MEL-2): 65.5 µM (inactive)
GI50 (SK-MEL-5): 67.1 µM (inactive)
GI50 (SR): 30.8 µM (inactive)

Cc1ccccc1Cn1nc2ccccc2cc1=O
GI50 (786-0): > 100 µM (inactive)
GI50 (A498): > 100 µM (inactive)
GI50 (DMS-114): > 100 µM (inactive)
GI50 (HCC 2998): > 100 µM (inactive)
GI50 (HCT-116): > 100 µM (inactive)
GI50 (HOP-62): > 100 µM (inactive)
GI50 (HOP-92): > 100 µM (inactive)
GI50 (NCI-H226): > 100 µM (inactive)
GI50 (OVCAR-5): > 100 µM (inactive)
GI50 (RPMI-8226): > 100 µM (inactive)
GI50 (SK-MEL-28): > 100 µM (inactive)
GI50 (SK-MEL-2): > 100 µM (inactive)
GI50 (SK-MEL-5): > 100 µM (inactive)

Fc1cccc2c1cc1ccc3cccc4ccc2c1c34
GI50 (786-0): > 100 µM (inactive)
GI50 (A498): > 100 µM (inactive)
GI50 (HCC 2998): > 100 µM (inactive)
GI50 (HCT-116): > 100 µM (inactive)
GI50 (HOP-62): > 100 µM (inactive)
GI50 (HOP-92): > 100 µM (inactive)
GI50 (LXFL 529): > 100 µM (inactive)
GI50 (NCI-H226): > 100 µM (inactive)
GI50 (OVCAR-5): > 100 µM (inactive)
GI50 (RXF 393): > 100 µM (inactive)
GI50 (SK-MEL-28): > 100 µM (inactive)
GI50 (SK-MEL-2): > 100 µM (inactive)
GI50 (SK-MEL-5): > 100 µM (inactive)
GI50 (SR): 60.5 µM (inactive)

CC(C)NC(C)C(C)c1ccccc1 (stereo not drawn)
GI50 (786-0): > 100 µM (inactive)
GI50 (A498): > 100 µM (inactive)
GI50 (DMS-114): > 100 µM (inactive)
GI50 (HCC 2998): > 100 µM (inactive)
GI50 (HCT-116): > 100 µM (inactive)
GI50 (HOP-62): > 100 µM (inactive)
GI50 (LXFL 529): > 100 µM (inactive)
GI50 (NCI-H226): > 100 µM (inactive)
GI50 (RPMI-8226): > 100 µM (inactive)
GI50 (RXF 393): > 100 µM (inactive)
GI50 (SK-MEL-28): > 100 µM (inactive)
GI50 (SK-MEL-2): > 100 µM (inactive)
GI50 (SK-MEL-5): > 100 µM (inactive)

CCCCCCCCCc1cc(=O)c2c(O)cc(O)cc2o1
GI50 (786-0): 21.6 µM (inactive)
GI50 (A498): 18.1 µM (inactive)
GI50 (DU-145): 20.2 µM (inactive)
GI50 (HCC 2998): 21.1 µM (inactive)
GI50 (HCT-116): 21.7 µM (inactive)
GI50 (HOP-62): 14.8 µM (inactive)
GI50 (HOP-92): 16.3 µM (inactive)
GI50 (Hs-578T): 16.7 µM (inactive)
GI50 (NCI-H226): 17.8 µM (inactive)
GI50 (NCI/ADR-RES): 17.6 µM (inactive)
GI50 (OVCAR-5): 16.6 µM (inactive)
GI50 (PC-3): 18 µM (inactive)
GI50 (RPMI-8226): 5.86 µM (inactive)
GI50 (RXF 393): 15.1 µM (inactive)
GI50 (SK-MEL-28): 19.2 µM (inactive)
GI50 (SK-MEL-2): 18.9 µM (inactive)
GI50 (SK-MEL-5): 19.8 µM (inactive)
GI50 (SR): 15.2 µM (inactive)

COC1CCC(OS(C)(=O)=O)C(C)O1 (stereo not drawn)
GI50 (786-0): > 10 µM (inactive)
GI50 (A498): > 10 µM (inactive)
GI50 (DU-145): > 10 µM (inactive)
GI50 (HCC 2998): > 10 µM (inactive)
GI50 (HCT-116): > 10 µM (inactive)
GI50 (HOP-62): > 10 µM (inactive)
GI50 (HOP-92): 5.89 µM (inactive)
GI50 (Hs-578T): > 10 µM (inactive)
GI50 (NCI-H226): > 10 µM (inactive)
GI50 (NCI/ADR-RES): > 10 µM (inactive)
GI50 (OVCAR-5): > 10 µM (inactive)
GI50 (PC-3): > 10 µM (inactive)
GI50 (RPMI-8226): > 10 µM (inactive)
GI50 (RXF 393): > 10 µM (inactive)
GI50 (SK-MEL-28): > 10 µM (inactive)
GI50 (SK-MEL-2): > 10 µM (inactive)
GI50 (SK-MEL-5): > 10 µM (inactive)
GI50 (SR): > 10 µM (inactive)

OCCN(CCO)c1ccc2c(C(F)(F)F)cc(C(F)(F)F)nc2n1
GI50 (786-0): > 100 µM (inactive)
GI50 (A498): 48.5 µM (inactive)
GI50 (DU-145): > 100 µM (inactive)
GI50 (HCC 2998): > 100 µM (inactive)
GI50 (HCT-116): > 100 µM (inactive)
GI50 (HOP-62): > 100 µM (inactive)
GI50 (HOP-92): > 100 µM (inactive)
GI50 (Hs-578T): > 100 µM (inactive)
GI50 (NCI-H226): > 100 µM (inactive)
GI50 (NCI/ADR-RES): > 80.4 µM (inactive)
GI50 (OVCAR-5): > 100 µM (inactive)
GI50 (PC-3): > 100 µM (inactive)
GI50 (RPMI-8226): > 100 µM (inactive)
GI50 (RXF 393): > 100 µM (inactive)
GI50 (SK-MEL-28): > 100 µM (inactive)
GI50 (SK-MEL-2): > 100 µM (inactive)
GI50 (SK-MEL-5): 95.7 µM (inactive)
GI50 (SR): > 100 µM (inactive)

CC(C)(C)OC(=O)NC1CC2(C=C(Br)C(=O)C(Br)=C2)OC1=O (stereo not drawn)
GI50 (786-0): 2.72 µM (inactive)
GI50 (A498): 23.3 µM (inactive)
GI50 (DU-145): 13 µM (inactive)
GI50 (HCC 2998): 11.6 µM (inactive)
GI50 (HCT-116): 3.28 µM (inactive)
GI50 (HOP-62): 18.7 µM (inactive)
GI50 (HOP-92): 12.5 µM (inactive)
GI50 (Hs-578T): 22 µM (inactive)
GI50 (NCI-H226): 18.1 µM (inactive)
GI50 (NCI/ADR-RES): 14.8 µM (inactive)
GI50 (OVCAR-5): 18.3 µM (inactive)
GI50 (PC-3): 13.9 µM (inactive)
GI50 (RPMI-8226): 0.968 µM (active)
GI50 (RXF 393): 3.58 µM (inactive)
GI50 (SK-MEL-28): 21.1 µM (inactive)
GI50 (SK-MEL-2): 16 µM (inactive)
GI50 (SK-MEL-5): 16.4 µM (inactive)
GI50 (SR): 0.955 µM (active)

COc1cc2c(c(OC)c1OC)-c1ccc(SC)c(=O)cc1[C@@H](NCc1ccc(F)cc1)CC2
GI50 (786-0): < 0.0075 µM (active)
GI50 (A498): < 0.0075 µM (active)
GI50 (HCC 2998): < 0.0075 µM (active)
GI50 (HCT-116): < 0.0075 µM (active)
GI50 (HOP-62): < 0.0075 µM (active)
GI50 (HOP-92): < 0.0075 µM (active)
GI50 (LXFL 529): < 0.0075 µM (active)
GI50 (NCI-H226): < 0.0075 µM (active)
GI50 (OVCAR-5): 2.54 µM (inactive)
GI50 (RPMI-8226): < 0.0075 µM (active)
GI50 (RXF 393): < 0.0075 µM (active)
GI50 (SK-MEL-28): 8.77 µM (inactive)
GI50 (SK-MEL-2): < 0.0075 µM (active)
GI50 (SK-MEL-5): < 0.0075 µM (active)
GI50 (SR): < 0.0075 µM (active)

COc1cc2ncnc(Nc3cccc(Cl)c3)c2cc1OC [TYRPHOSTIN AG-1478]
GI50 (786-0): 6.28 µM (inactive)
GI50 (A498): 2.54 µM (inactive)
GI50 (DU-145): 1.89 µM (inactive)
GI50 (HCC 2998): 13.6 µM (inactive)
GI50 (HCT-116): 17.6 µM (inactive)
GI50 (HOP-62): 20.8 µM (inactive)
GI50 (HOP-92): 5.19 µM (inactive)
GI50 (Hs-578T): 3.57 µM (inactive)
GI50 (NCI-H226): 2.4 µM (inactive)
GI50 (NCI/ADR-RES): 3.63 µM (inactive)
GI50 (OVCAR-5): 9.46 µM (inactive)
GI50 (PC-3): 12.6 µM (inactive)
GI50 (RPMI-8226): 8.85 µM (inactive)
GI50 (RXF 393): 9.42 µM (inactive)
GI50 (SK-MEL-28): 9.38 µM (inactive)
GI50 (SK-MEL-2): 9.27 µM (inactive)
GI50 (SK-MEL-5): 6.1 µM (inactive)
GI50 (SR): 7.33 µM (inactive)
